The text below walks through data of patent US7312358B2, “Pharmaceutically active sulfanilide derivatives” (Laboratoires Serono SA, priority 2000, dated 2007).

SMILES strings stand for the structures.

One experiment deals with T1, hOT receptor (Homo sapiens, UniProt P30559).
T1 construct: expressed in transfected cells; host or cells: HEK293EBNA cells (membranes)
T1 sequence (P30559 1-389): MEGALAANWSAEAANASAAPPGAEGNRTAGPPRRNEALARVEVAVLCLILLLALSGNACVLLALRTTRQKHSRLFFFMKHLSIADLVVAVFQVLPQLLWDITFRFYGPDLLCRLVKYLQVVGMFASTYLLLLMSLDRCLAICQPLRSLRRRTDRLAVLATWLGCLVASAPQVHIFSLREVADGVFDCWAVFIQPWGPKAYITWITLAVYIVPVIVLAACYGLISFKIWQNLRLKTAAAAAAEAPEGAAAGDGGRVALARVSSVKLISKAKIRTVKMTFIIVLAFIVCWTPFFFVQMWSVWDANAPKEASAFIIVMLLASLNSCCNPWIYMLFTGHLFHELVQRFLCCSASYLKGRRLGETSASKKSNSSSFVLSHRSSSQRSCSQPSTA
Kind of experiment: In vitro competition binding assay on hOT receptor with scintillating proximity assay. The following applies: membranes from HEK293EBNA cells expressing hOT receptor; radiolabel [125I]-OVTA; SPA; read-out: Binding Affinity Human OT-R Ki. In short, it runs like this: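 SPA competition binding using HEK293EBNA membranes expressing hOT receptor (2-4 μg) with WGA beads and 0.2 nM [125I]-OVTA in 50 mM Tris-HCl pH 7.4, 5 mM MgCl2, 0.1% BSA, 30 min at room temperature. Non-specific binding with 1 μM oxytocin; compounds at 10 pM–30 μM; IC50 by nonlinear curve fitting.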

The next experiment has as its target T2, hOT-R (Homo sapiens, UniProt P30559).
T2 construct: expressed in transfected cells; host or cells: HEK (Human Embryonic Kidney) cells
T2 sequence (P30559 1-389): T1 sequence (P30559 1-389)
Description: Inhibition of oxytocin mediated Ca2+-mobilization by FLIPR (HEK cells). The note with it: fluo-4, OT 40 nM. It is filed as cell-based. In short, it runs like this: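 HEK cells loaded with fluo-4 for 1.5–2 h; antagonist added at 10 pM–30 μM in HEPES-buffered saline, pH 7.4, then stimulated with 40 nM oxytocin. Intracellular Ca2+ mobilization read as fluorescence on FLIPR.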

What is called Ki is a dissociation constant, usually derived from enzyme kinetics or from competition with a known ligand. Broadly, the IC50 is the concentration needed to halve the response being measured. Read a low IC50 as higher potency.

`CCOc1ccc(S(=O)(=O)N(CC(=O)N/N=C2/C(=O)Nc3ccccc32)c2ccc(C)cc2)cc1` [Example 5, 4-ethoxy-N-(4-methylphenyl)-N-{2-oxo-2-[2-(2-oxo-1,2-dihydro-3H-indol-3-ylidene)hydrazino]ethyl}benzenesulfonamide]: on hOT receptor, the Ki came out at 0.0173 µM. Besides, on hOT-R, the IC50 is 0.055 µM.
